Each structure is given as a SMILES string.

The values that follow come from US5011952A, “Phospholipase A2 inhibitor” (Shionogi & Co., Ltd., priority 1989, dated 1991).

A short description of one series: Solubility in solvents. The class given is physicochemical.
In series [1] the target is T1, PLA2 released from thrombin-stimulated rat platelets (Rattus norvegicus, UniProt P14423).
T1 construct: PLA2 released from thrombin-stimulated rat platelets; from tissue
T1 sequence (P14423 22-146): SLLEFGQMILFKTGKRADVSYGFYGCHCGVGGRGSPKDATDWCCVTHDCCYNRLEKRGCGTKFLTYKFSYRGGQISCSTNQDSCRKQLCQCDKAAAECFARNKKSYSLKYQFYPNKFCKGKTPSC
Briefly: PLA2 inhibitory activity, rat platelet-derived PLA2. The class given is biochemical. The following applies: for inhibitory concentrations of α-thielocin versus β-thielocin: isomers equilibrated in the reaction solution. The procedure:
PLA2 inhibitory activities of thielocin were determined according to the following procedure.
PLA2 released from thrombin-stimulated rat platelets was prepared by immuno-affinity chromatography using antibody MD 7.1-coupled Sepharose (Murakami et. al, J. Biochem 104: 884-888, 1988). The standard assay conditions included, 250 μl of Tris-HCl buffer (100 mM, pH 7.4), CaCl2 (3 mM), 40 μM [^14 C] phosphatidylethanolamine and enzyme. The reaction was started by the addition of the enzyme solution. Following incubation at 37° C. for 20 min the reactions were terminated by addition of 1.25 ml of Dole's reagent (Dole, V. P. & H, Meinerts, J. Biol. Chem 235: 2595-2599, 1960). Then released free fatty acid was extracted, and counted in Liquiflour (Du Pont-New England Nuclear) to determine the release of the radioactivity. Inhibition activity is expressed as percent of enzyme control.

For series [2], the target named is T2, PLA2 derived from porcine pancreas (Sus scrofa, UniProt P00592).
T2 construct: porcine-derived PLA2; from tissue; host or cells: porcine pancreas
As to the kind of experiment: PLA2 inhibitory activity, porcine pancreas-derived PLA2. The format is biochemical. The note with it: read-out: concentration required for exhibiting 50 % inhibitory activity.

In a further series the test system is snake venom-derived PLA2. As to the kind of experiment: PLA2 inhibitory activity, snake venom-derived PLA2. The class given is biochemical.

T2 sequence (P00592 23-146): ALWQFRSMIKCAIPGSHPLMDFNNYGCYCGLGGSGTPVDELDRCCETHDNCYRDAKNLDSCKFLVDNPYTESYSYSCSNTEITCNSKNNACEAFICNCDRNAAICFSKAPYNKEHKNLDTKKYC

For `COc1c(C)c(OC(=O)c2c(C)c(C)c(OC(=O)C3=C(C)C(C)(O)C4(O)Oc5c(C)c(OC)c(C(=O)Oc6c(C)c(C)c(C(=O)O)c(OC)c6C)c(C)c5CC4(C)C3=O)c(C)c2OC)c(C)c(C)c1C(=O)O` (stereo not drawn) [Thielocin α, α-thielocin], the Solubility entry in “Solubility in solvents” (acetone) is “Soluble”; in “Solubility in solvents” (acetonitrile), “Soluble”; in “Solubility in solvents” (chloroform), “Soluble”; in the series “Solubility in solvents” (dimethylsulfoxide), “Soluble”; in “Solubility in solvents” (ethanol), “slightly soluble”; in the series “Solubility in solvents” (ethyl acetate), “Soluble”. The Solubility result in the series “Solubility in solvents” (ethyl ether) is given as “sparingly soluble or insoluble”; in “Solubility in solvents” (hexane), “sparingly soluble or insoluble”; in “Solubility in solvents” (methanol), “slightly soluble”; in “Solubility in solvents” (petroleum ether), “sparingly soluble or insoluble”; in the series “Solubility in solvents” (water) it was “sparingly soluble or insoluble”. The “inhibitory concentrations of α-thielocin versus β-thielocin” value in series [1] is “not distinguished”.
Turning to `COc1c(C)c(OC(=O)c2c(C)c(C)c(OC(=O)C3=C(C)C(C)(O)C4(O)Oc5c(C)c(OC)c(C(=O)Oc6c(C)c(C)c(C(=O)O)c(OC)c6C)c(C)c5CC4(C)C3=O)c(C)c2OC)c(C)c(C)c1C(=O)O` (stereo not drawn) [Thielocin β, β-thielocin], the Solubility result in “Solubility in solvents” (acetone) was “slightly soluble”; in the series “Solubility in solvents” (acetonitrile) it was “slightly soluble”; in the series “Solubility in solvents” (chloroform), “slightly soluble”; in the series “Solubility in solvents” (dimethylsulfoxide), “Soluble”; in “Solubility in solvents” (ethanol) it was “slightly soluble”; in the series “Solubility in solvents” (ethyl acetate), “slightly soluble”. In addition, the Solubility entry was “sparingly soluble or insoluble” in “Solubility in solvents” (ethyl ether); “sparingly soluble or insoluble” in “Solubility in solvents” (hexane); “slightly soluble” in the series “Solubility in solvents” (methanol); “sparingly soluble or insoluble” in the series “Solubility in solvents” (petroleum ether); “sparingly soluble or insoluble” in “Solubility in solvents” (water). Further, the “inhibitory concentrations of α-thielocin versus β-thielocin” value in series [1] is “not distinguished”.
`COc1c(C)c(OC(=O)c2c(C)c(C)c(OC(=O)C3=C(C)C(C)(O)C4(O)Oc5c(C)c(OC)c(C(=O)Oc6c(C)c(C)c(C(=O)O)c(OC)c6C)c(C)c5CC4(C)C3=O)c(C)c2OC)c(C)c(C)c1C(=O)O` (stereo not drawn) [thielocin]: the IC50 in series [2] came to 47.1 µM; in series [1] (rat platelet-derived PLA2, [14C]phosphatidylethanolamine substrate, 37° C., 20 min, read-out: concentration required for exhibiting 50 % inhibitory activity), 0.00501 µM. The “concentration required for exhibiting 50 % inhibitory activity” value with snake venom-derived PLA2 amounted to 10 µg/mL.
